In ChEMBL document CHEMBL1201862, “PubChem BioAssay data set” (2004):
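Method: 48-hour compound exposure of cells in 96-well plates, five concentrations, linear interpolation of endpoints. At the GI50, growth is halved.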 Calls of active or inactive are those of the source. Cut-off read from the data, not from the text of the source: active = GI50 up to about 1.1 µM and inactive = higher.

Assays:
Test in all cases: NCI anticancer screen, dose series, 48 h
[1] = tested on: ACHN
[2] = tested on: A498
[3] = tested on: CAKI-1
[4] = tested on: TK-10
[5] = tested on: UACC-62
[6] = tested on: SK-MEL-28
[7] = tested on: IGROV-1
[8] = tested on: DLD-1
[9] = tested on: SK-MEL-5
[10] = tested on: SF-268
[11] = tested on: OVCAR-8
[12] = tested on: NCI-H460
[13] = tested on: SW-620
[14] = tested on: UACC-257
[15] = tested on: RPMI-8226
[16] = tested on: HCC 2998
[17] = tested on: Hs-578T
[18] = tested on: LOX IMVI
[19] = tested on: SF-295
[20] = tested on: OVCAR-5

Row | SMILES | GI50 [1] | GI50 [2] | GI50 [3] | GI50 [4] | GI50 [5] | GI50 [6] | GI50 [7] | GI50 [8] | GI50 [9] | GI50 [10] | GI50 [11] | GI50 [12] | GI50 [13] | GI50 [14] | GI50 [15] | GI50 [16] | GI50 [17] | GI50 [18] | GI50 [19] | GI50 [20]
1 | O=C(Nc1cccc2c1C(=O)c1c(NC(=O)c3ccccc3)ccc(Nc3cccc4c3C(=O)c3ccccc3C4=O)c1C2=O)c1ccccc1 | > 100 µM (inactive) | > 100 µM (inactive) | > 100 µM (inactive) | > 100 µM (inactive) | > 100 µM (inactive) | > 100 µM (inactive) | > 100 µM (inactive) | > 100 µM (inactive) | > 100 µM (inactive) | > 100 µM (inactive) | > 100 µM (inactive) | > 100 µM (inactive) | > 100 µM (inactive) | > 100 µM (inactive) | > 100 µM (inactive) | > 100 µM (inactive) |  |  |  | 
2 | Cc1cc(N)ccc1/N=N\c1ccc(S(=O)(=O)CCOS(=O)(=O)O)cc1 | 3.24 µM (inactive) | 11.2 µM (inactive) | 1.88 µM (inactive) | 14 µM (inactive) | 1.57 µM (inactive) | 1.69 µM (inactive) | 0.713 µM (active) |  | 0.287 µM (active) | 6.11 µM (inactive) | 0.356 µM (active) | 3.44 µM (inactive) | 0.368 µM (active) | 11.1 µM (inactive) | 1 µM (active) | 2.01 µM (inactive) | 5.08 µM (inactive) | 0.343 µM (active) | 2.63 µM (inactive) | 20.3 µM (inactive)
3 | COc1cc(OCCN(C)C)c2[nH]c(C(=O)N3CC(CCl)c4c3cc(N)c3ccccc43)cc2c1 (configuration not stated) | < 0.01 µM (active) | < 0.01 µM (active) | < 0.01 µM (active) | < 0.01 µM (active) | < 0.01 µM (active) | < 0.01 µM (active) | < 0.01 µM (active) |  | < 0.01 µM (active) | < 0.01 µM (active) | < 0.01 µM (active) | < 0.01 µM (active) | < 0.01 µM (active) | < 0.01 µM (active) | < 0.01 µM (active) | < 0.01 µM (active) | < 0.01 µM (active) | < 0.01 µM (active) | < 0.01 µM (active) | < 0.01 µM (active)
4 | COc1ccc2c(c1)C(=O)C1CCC(=O)N1C2c1ccc2c(c1)OCO2 (configuration not stated) | 12.1 µM (inactive) | 17 µM (inactive) | 19.7 µM (inactive) | 30.8 µM (inactive) | 13.6 µM (inactive) | 11.3 µM (inactive) | 16.5 µM (inactive) |  | 11.4 µM (inactive) | 13.6 µM (inactive) | 18.1 µM (inactive) | 23.9 µM (inactive) | 5.36 µM (inactive) | 16.9 µM (inactive) | 2.91 µM (inactive) | 14.8 µM (inactive) | 27.2 µM (inactive) | 9.59 µM (inactive) | 15.9 µM (inactive) | 14.9 µM (inactive)
5 | CC1=C(C(=O)Nc2ccccc2)C(c2ccc(Cl)c(Cl)c2)C(C(=O)Nc2ccccc2)=C(C)N1 | 12.1 µM (inactive) | 16.7 µM (inactive) |  | 33.9 µM (inactive) | 10.2 µM (inactive) | 12.8 µM (inactive) | 14.5 µM (inactive) | 12.1 µM (inactive) | 14 µM (inactive) | 12 µM (inactive) | 13.7 µM (inactive) | 13 µM (inactive) | 17 µM (inactive) | 12.7 µM (inactive) |  |  |  | 14.2 µM (inactive) | 12.5 µM (inactive) | 18.3 µM (inactive)
6 | CCNC(=O)OCC1C2=C(C(=O)C(C)=C(N)C2=O)N2CC3C(N3C)C12OC (configuration not stated) | 4.22 µM (inactive) | 20.9 µM (inactive) | 3.95 µM (inactive) | 60.1 µM (inactive) | 11.9 µM (inactive) | > 81.7 µM (inactive) | 18.5 µM (inactive) |  | 12.8 µM (inactive) | 15.7 µM (inactive) | 21.7 µM (inactive) | 0.18 µM (active) | 9.93 µM (inactive) | 62.4 µM (inactive) | 14.4 µM (inactive) | 14.6 µM (inactive) | > 100 µM (inactive) | 13.7 µM (inactive) | 7.76 µM (inactive) | > 72.6 µM (inactive)
7 | N=C(Cc1ccccc1)NCC(=O)O | > 100 µM (inactive) | > 100 µM (inactive) | > 100 µM (inactive) | > 100 µM (inactive) | > 100 µM (inactive) | > 100 µM (inactive) | > 100 µM (inactive) |  | > 100 µM (inactive) | > 100 µM (inactive) | > 100 µM (inactive) | > 100 µM (inactive) | > 100 µM (inactive) | > 100 µM (inactive) | > 100 µM (inactive) | > 100 µM (inactive) | > 100 µM (inactive) | > 100 µM (inactive) | > 100 µM (inactive) | > 100 µM (inactive)
8 | NS(=O)(=O)c1cc2c(cc1Cl)NC(Cc1ccccc1)NS2(=O)=O (configuration not stated) [BENZYLHYDROCHLOROTHIAZIDE] | > 100 µM (inactive) | > 100 µM (inactive) | > 100 µM (inactive) | > 100 µM (inactive) | > 100 µM (inactive) | > 100 µM (inactive) | > 100 µM (inactive) |  | > 100 µM (inactive) | > 100 µM (inactive) | > 100 µM (inactive) | > 100 µM (inactive) | 41.7 µM (inactive) | > 100 µM (inactive) | 53.1 µM (inactive) | > 100 µM (inactive) | > 100 µM (inactive) | 99.8 µM (inactive) | > 100 µM (inactive) | > 100 µM (inactive)
9 | Cc1sc2nc(N(C)C)oc(=O)c2c1C | 79.8 µM (inactive) | 81.3 µM (inactive) | 76.9 µM (inactive) | > 100 µM (inactive) | > 100 µM (inactive) | > 100 µM (inactive) | > 100 µM (inactive) |  | 72.4 µM (inactive) | 7.01 µM (inactive) | 73.5 µM (inactive) | > 100 µM (inactive) | > 100 µM (inactive) | > 100 µM (inactive) | 41.3 µM (inactive) | > 100 µM (inactive) | > 100 µM (inactive) | > 100 µM (inactive) | 61.2 µM (inactive) | > 100 µM (inactive)
10 | CCCCN1C(=O)C[C@H]2[C@@H]3CCc4cc(OCCN5CCCC5)ccc4[C@H]3CC[C@]2(C)C1=O | 12.9 µM (inactive) | 14.7 µM (inactive) | 7.96 µM (inactive) | 14.6 µM (inactive) | 3.72 µM (inactive) | 3.45 µM (inactive) | 15.7 µM (inactive) |  | 5.94 µM (inactive) | 12.9 µM (inactive) | 15.1 µM (inactive) | 5.79 µM (inactive) | 11.5 µM (inactive) | 4.38 µM (inactive) | 2.96 µM (inactive) | 10.3 µM (inactive) | 13.2 µM (inactive) | 3.19 µM (inactive) | 3.9 µM (inactive) | 11.4 µM (inactive)
11 | CCC(C(=O)c1ccccc1)C(CCCC(=O)Nc1c(C)cccc1C)N=O (configuration not stated) | > 100 µM (inactive) | > 100 µM (inactive) | > 100 µM (inactive) | > 100 µM (inactive) | > 100 µM (inactive) | > 100 µM (inactive) | > 100 µM (inactive) | > 100 µM (inactive) | > 100 µM (inactive) | > 100 µM (inactive) | > 100 µM (inactive) | > 100 µM (inactive) | > 100 µM (inactive) | > 100 µM (inactive) | > 100 µM (inactive) | > 100 µM (inactive) |  |  | > 100 µM (inactive) | > 100 µM (inactive)
12 | CNC(=O)OCc1c2ccncc2c(C)c2c1[nH]c1ccccc12 | 0.0841 µM (active) | 0.202 µM (active) | 0.141 µM (active) | 0.237 µM (active) | 0.238 µM (active) | 0.818 µM (active) | 0.182 µM (active) |  | 0.242 µM (active) | 0.272 µM (active) | 0.125 µM (active) | 0.167 µM (active) | 0.136 µM (active) | 0.587 µM (active) | 0.134 µM (active) | 0.206 µM (active) | 0.413 µM (active) | 0.136 µM (active) | 0.292 µM (active) | 0.296 µM (active)
13 | CN1COc2c(n(C)c(=O)[nH]c2=O)C1 | > 100 µM (inactive) | > 100 µM (inactive) | > 47.8 µM (inactive) | > 100 µM (inactive) | > 80 µM (inactive) | > 100 µM (inactive) | > 100 µM (inactive) | > 100 µM (inactive) | > 100 µM (inactive) | > 100 µM (inactive) | > 95.7 µM (inactive) | > 100 µM (inactive) | 38.6 µM (inactive) | > 100 µM (inactive) | 26.1 µM (inactive) | > 100 µM (inactive) |  |  | > 100 µM (inactive) | > 100 µM (inactive)
14 | COC(=O)/C=C\[C@@H]1[C@H](C)N1S(=O)(=O)c1ccc(C)cc1 (some centres not stated) | > 100 µM (inactive) | > 100 µM (inactive) | > 100 µM (inactive) | > 100 µM (inactive) | > 100 µM (inactive) | > 100 µM (inactive) | > 100 µM (inactive) |  | > 100 µM (inactive) | > 100 µM (inactive) | > 100 µM (inactive) | > 100 µM (inactive) | > 100 µM (inactive) | > 100 µM (inactive) | > 100 µM (inactive) | > 100 µM (inactive) | > 100 µM (inactive) | > 100 µM (inactive) | > 100 µM (inactive) | > 100 µM (inactive)
15 | CCCOc1cc2c(cc1O)CC[C@@H]1[C@@H]2CC[C@]2(C)[C@@H](O)CC[C@@H]12 | 5.2 µM (inactive) | 5.37 µM (inactive) | 2.81 µM (inactive) | 7.5 µM (inactive) | 1.2 µM (inactive) | 8.26 µM (inactive) | 5.48 µM (inactive) |  | 2.12 µM (inactive) | 6.3 µM (inactive) | 4.98 µM (inactive) | 1.62 µM (inactive) | 1 µM (active) | 5.04 µM (inactive) | 1.83 µM (inactive) | 4.56 µM (inactive) | 1.55 µM (inactive) | 2.74 µM (inactive) | 2.76 µM (inactive) | 27.4 µM (inactive)
